Assays:
[1] = established for known ergot alkaloids; cited from earlier work
[2] = system: smooth muscles of blood vessels; assay: effect on blood pressure drop in rats with cut spinal cord; assay type: in vivo, rats (variety Wistar); details: for long-duration hypertension (effect in words): 4.5 mg/kg of body weight; for vasoconstrictory effect: contraction of smooth muscles of blood vessels
Source text: Rats (variety Wistar) in urethane narcosis were cut their spinal cord in the region of the second cervical vertebra and connected to an artificial breathing apparatus (B. Melsungen). By this intervention the central regulation of blood pressure was eliminated. In so treated animals blood pressure dropped for about 50 mm Hg. The experiment was supposed to show whether the examined substances directly affected the smooth muscles of blood vessels.

[3] = system: spontaneously hypertensive rats; assay: effect on arterial pressure of spontaneously hypertensive rats; assay type: in vivo, rats (variety Okamoto Aoki F32); details: spontaneously hypertensive rats, 50 mcg/kg intraperitoneally
Experimental: For the experiment groups of 10 spontaneously hypertensive rats (variety Okamoto Aoki F32) of both sexes, weighing from 200 to 250 g, were used. The acid addition salts of said dextrorotatory ergot alkaloids were administered intraperitoneally in doses of 50 mcg/kg of body weight and systolic blood pressure was measured on the rats' tails by means of plethysmographic method (K. Okamoto and K. Aoki, Jap. Circulat. J. 27, 1963, 282).

[4] = system: isolated heart of a guinea pig; assay: effect on isolated heart of a guinea pig, modified Langendorff's method; details: isolated heart of guinea pig
Source text: The effect of dextrorotatory ergot alkaloids according to the invention on heart in vitro was examined on isolated heart of a guinea pig by the modified Langendorff's method (Zalar et al., Poll. Chim. Farmac. 114, 1975, 146). Alkaloids were infused by an apparatus for slow infusion (B. Melsungen).

heart in situ = assay: effect on heart in situ in rats; assay type: in vivo; details: slow infusion
Experimental: The effect of ergotaminine, ergosinine and ergocrystinine on heart in situ was examined in rats. The thorax of narcotized rats (0.7 ml of 25% urethane solution per 100 g of the body weight, administered subcutaneously) was opened. The heart was placed into a special basket with a balloon, which was connected over a polyethylene cannula to a transducer "Mini Pressure Transducer--Beckmann" and dynograph Beckmann. As the left wall of the ventricle leant against the balloon, the contraction of the ventricle could be recorded. Over a tracheal tube the rats were connected to an artificial breathing apparatus.

[5] = system: arrhythmias induced by adrenalin; assay: effect on arrhythmia induced by adrenalin; assay type: in vivo; details: guinea pigs, arrhythmias induced by adrenalin
Experimental: For experiments, guinea pigs of both sexes, weighing from 400 to 550 g, were used. The narcotized animals (urethane 1.6 g/kg of body weight, intraperitoneally) were at first intravenously administered adrenalin (0.02 mg/kg) and then dextrorotatory ergot alkaloids. 1 hour and 1.5 hours after the administration of dextrorotatory ergot alkaloids, adrenalin was again administered intravenously (0.02 mg/kg) and the presence as well as duration of arrhythmias was ascertained.

[6] = system: alpha-adrenergic receivers of the dilatating pupil muscle; assay: effect on the function of the pupil (mydriatic effect, Polewka's method); assay type: in vivo; details: 5 mg/kg intravenously, mouse
Experimental: The phenomenon of mydriasis induced by ergot alkaloids results from the stimulation of alpha-adrenergic receivers of the dilatating pupil muscle (Z. Votava et al., Arch. int. Pharmacodin. 45, 1958, 114).
The mydriatic effect of dextrorotatory ergot alkaloids administered intravenously was determined with a monocular measuring magnifying glass by Polewka's method (A. R. Turner, Screening Methods in Pharmacology, 1965, p. 174 ff.).
The size of the pupil was measured at first before the administration of the substance and then 15, 30 and 60 minutes after intravenous administration of alkaloids into the mouse tail (dose 5 mg/kg of body weight).

[7] = literature comparison; cited from earlier work

Structure (SMILES) | heart action (bradycardia) [1] | long-duration hypertension (effect in words) [2] | vasoconstrictory effect [2] | effect on systolic blood pressure (in words) [3] | effect on isolated heart (in words) [4] | effect on the strength of heart contraction (in words) [4] | increase of the strength of heart contraction (heart in situ; 250 mcg/kg intravenously) | increase of the strength of heart contraction (heart in situ; 300 mcg/kg intravenously) | effect on duration of arrhythmia (in words) [5] | mydriatic effect (in words) [6] | vasoconstrictory effect [7] | duration of long-duration hypertension ([2]; acid addition salts, 1.5 mg/kg of body weight)
CN1C[C@H](C(=O)N[C@]2(C)O[C@@]3(O)[C@@H]4CCCN4C(=O)[C@H](Cc4ccccc4)N3C2=O)C=C2c3cccc4[nH]cc(c34)C[C@H]21 [ergotamine] | bradycardia | – | – | – | – | – | – | – | – | – | – | –
CC(C)C[C@H]1C(=O)N2CCC[C@H]2[C@]2(O)O[C@@](C)(NC(=O)[C@H]3C=C4c5cccc6[nH]cc(c56)C[C@H]4N(C)C3)C(=O)N12 [ergosinine] | – | The same effect | vasoconstrictory effect | strongest effect | qualitatively similar to that of ergotamine, ergosine and dihydroergotamine | quantitatively greater effect on the strength of heart contraction | 15% | 30% | most efficiently shortened | strongest mydriatic effect | – | –
CC(C)[C@@]1(NC(=O)[C@H]2C=C3c4cccc5[nH]cc(c45)C[C@H]3N(C)C2)O[C@@]2(O)[C@@H]3CCCN3C(=O)[C@H](Cc3ccccc3)N2C1=O [ergocristinine] | – | no effect | – | – | – | – | 15% | 30% | – | – | – | –
CN1C[C@H](C(=O)N[C@]2(C)O[C@@]3(O)[C@@H]4CCCN4C(=O)[C@H](Cc4ccccc4)N3C2=O)C[C@@H]2c3cccc4[nH]cc(c34)C[C@H]21 [dihydroergotamine] | bradycardia | – | – | – | – | – | – | – | – | – | vasoconstrictory effect | –
CN1C[C@@H](C(=O)N[C@]2(C)O[C@@]3(O)[C@@H]4CCCN4C(=O)[C@H](Cc4ccccc4)N3C2=O)C=C2c3cccc4[nH]cc(c34)C[C@H]21 [ergotaminine] | – | – | vasoconstrictory effect | strongest effect | qualitatively similar to that of ergotamine, ergosine and dihydroergotamine | – | 15% | 30% | – | – | – | more than 60 minutes

— US4440772A, “Acid addition salts of dextrorotatory ergot alkaloids, a process for the preparation thereof as well as their use as medicines” (priority 1978, dated 1984)
